Measured values reported in patent publication US20100285597A1, “DETECTION OF FRAGMENTS OF NECTIN-1 FOR THE DIAGNOSIS OF ALZHEIMER'S DISEASE” (UNIVERSITY OF ROCHESTER, priority 2007, published 2010).

System: γ-secretase
Test: Western blot of nectin-1 C-terminal fragments in hippocampal neurons overexpressing flag tagged nectin-1, treated with γ-secretase inhibitor
Assay type: cell-based, rat
Conditions: 0.5 and 1 μM inhibitor, 24 hrs, transduced hippocampal neurons at 21 DIV
Description: Hippocampal neurons were plated at a density of 1.3×10^5 cells. The neurons at 21 DIV were transduced with an adenovirus vector expressing a C-terminal flag tagged nectin-1 for 24 hrs at a MOI of 50. Neurons were treated without (FIG. 3, lanes 1 and 2) or with 0.5 μM (FIG. 3, lanes 3 and 4) and 1 μM γ-secretase inhibitor X (FIG. 3, lanes 5 and 6) for 24 hrs. These cells were harvested in reducing sample buffer and analyzed on a 10% SDS-PAGE gel.
Technical difficulties preclude detection of endogenous C-terminal fragments, particularly the 35 and 24 kDa forms due to low expression levels in neurons. To circumvent this, C-terminal Flag tagged nectin-1 was over expressed in neurons as described above.

In the case of `CC(C)C[C@H](NC(=O)[C@H](Cc1ccccc1)C[C@@H](O)[C@H](Cc1ccccc1)NC(=O)OC(C)(C)C)C(=O)N[C@@H](Cc1ccccc1)C(N)=O` [γ-secretase inhibitor X], the “density of the 24 kDa nectin-1 band” value is reported as “reduced” and the “density of the 37, 34 and 30 kDa nectin-1 bands” value is reported as “increased”.
